Measured values as given in US9346823B2, “Detection and use of low molecular-weight modulators of the cold-menthol receptor TRPM8” (BASF SE, priority 2008, dated 2016).

Molecular target: T1, human receptor TRPM8 (Homo sapiens, UniProt Q7Z2W7)
T1 construct: expressed in transfected cells
Assay: Assay on TRPM8 modulators: Ca2+-sensitive dye (Fluo-4) fluorescence in HEK293 cells stably transfected with human TRPM8
Format: cell-based
Conditions: tetracycline-induced, Fluo-4AM, agonist mode, triplicate, test concentrations 0.1-200 μM
Experimental: In this connection, “standard conditions” is understood as meaning an activity test carried out with HEK293 cells which have been transformed with human TRPM8 and loaded with calcium-sensitive dye (such as e.g. Fluo-4AM, i.e. fluo-4-acetoxymethyl ester), subsequent addition of the test compound and detection of the color change, the experimental procedure taking place at 37° C.; as described e.g. example 3 below, or in Behrendt et al. (2004) loc. cit.).
As test cell system, HEK293 cell line stably transfected with the human TRPM8 DNA (cf. above plasmid pind-M8) are produced. Preference here is given to HEK293 which offers the option, via the introduced plasmid, of inducing the TRPM8 expression by means of tetracycline.
The agonization or antagonization of the receptor can be quantified by means of a Ca^2+-sensitive dye (e.g. FURA, Fluo-4 etc.). On their own, agonists bring about an increase in the Ca^2+ signal; antagonists bring about, in the presence of e.g. menthol, a reduction in the Ca^2+ signal (in each case detected via the dye Fluo-4, which has different fluorescent properties as the result of Ca^2+ ). • a) Test Procedure:
Firstly, a fresh culture of transformed HEK cells is prepared in a manner known per se in cell culture flasks. The test cells HEK293-TRPM8 are detached from the cell culture flasks by means of trypsin and 40 000 cells/well are sown out with 100 μl of medium in 96-well plates (Greiner # 655948 poly-D-lysine-coated). To induce the receptor TRPM8, tetracycline is added to the growth medium (DMEM/HG, 10% FCS tetracycline-free, 4 mM L-glutamine, 15 μg/ml blasticidin, 100 μg/ml hygromycin B, 1 μg/ml tetracycline). On the following day, the cells are loaded with Fluo-4AM dye and the test is carried out. For this, the procedure is as follows: • addition of in each case 100 μl/well of dye solution Ca-4 kit (RB 141, Molecular Devices) to in each case 100 μl of medium (DMEM/HG, 10% FCS tetracycline-free, 4 mM L-glutamine, 15 μg/ml blasticidin, 100 μg/ml hygromycin B, 1 μg/ml tetracycline) • incubation in the hatching cabinet, 30 minutes/37° C./5% CO2, 30 minutes/RT • preparation of the test substances (various concentrations in 200 μl of HBSS buffer), and also of positive controls (various concentrations of menthol, icilin and ionomycin in 200 μl of HBSS buffer) and negative controls (only 200 μl of HBSS buffer) • addition of the test substances in amounts of 50 μl/well and measurement of the change in fluorescence (e.g. in the assay instrument FLIPR, Molecular Devices or NovoStar, BMG) at 485 nm excitation, 520 nm emission, and evaluation of the effectiveness of the various substances/concentrations and determination of the EC50 values.
The test substances are used in the assay in triplicate in concentrations of 0.1-200 μM. Normally, the compounds are kept ready in DMSO solutions and are diluted down to a maximum DMSO concentration of 2% for the assay. • b) Test Result

T1 sequence (Q7Z2W7 whole entry): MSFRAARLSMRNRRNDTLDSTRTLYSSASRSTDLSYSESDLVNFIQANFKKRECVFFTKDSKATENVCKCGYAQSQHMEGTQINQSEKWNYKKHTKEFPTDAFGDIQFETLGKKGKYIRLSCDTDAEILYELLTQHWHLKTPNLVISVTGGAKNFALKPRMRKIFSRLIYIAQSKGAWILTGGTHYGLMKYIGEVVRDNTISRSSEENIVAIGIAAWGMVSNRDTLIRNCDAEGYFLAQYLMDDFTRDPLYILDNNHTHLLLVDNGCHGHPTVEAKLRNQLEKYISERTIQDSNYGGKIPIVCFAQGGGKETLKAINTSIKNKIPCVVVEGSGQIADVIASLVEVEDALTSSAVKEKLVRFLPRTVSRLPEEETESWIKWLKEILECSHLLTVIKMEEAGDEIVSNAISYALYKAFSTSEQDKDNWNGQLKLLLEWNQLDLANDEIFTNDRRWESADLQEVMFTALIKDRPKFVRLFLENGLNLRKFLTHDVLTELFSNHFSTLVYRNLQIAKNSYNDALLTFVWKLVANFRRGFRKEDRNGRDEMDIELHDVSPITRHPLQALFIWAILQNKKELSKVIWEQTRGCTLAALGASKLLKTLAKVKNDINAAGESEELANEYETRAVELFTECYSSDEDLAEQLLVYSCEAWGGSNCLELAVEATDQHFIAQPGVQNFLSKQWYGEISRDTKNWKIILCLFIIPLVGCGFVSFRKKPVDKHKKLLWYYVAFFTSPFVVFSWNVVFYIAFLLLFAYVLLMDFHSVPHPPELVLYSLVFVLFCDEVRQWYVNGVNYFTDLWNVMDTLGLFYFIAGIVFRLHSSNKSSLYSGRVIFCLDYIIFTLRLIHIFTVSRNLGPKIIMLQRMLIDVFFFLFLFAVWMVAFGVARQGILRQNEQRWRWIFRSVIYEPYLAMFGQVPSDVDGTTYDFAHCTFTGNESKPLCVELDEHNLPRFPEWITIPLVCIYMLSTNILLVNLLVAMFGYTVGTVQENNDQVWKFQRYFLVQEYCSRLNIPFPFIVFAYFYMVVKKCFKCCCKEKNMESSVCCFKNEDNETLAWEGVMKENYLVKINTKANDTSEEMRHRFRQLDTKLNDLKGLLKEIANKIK

EC50 [µM] | Compound
0.4 | CC1OC(=O)C2=C1N1CCc3ccccc3C1CC21SCCS1 (stereo not shown) [Compound 1]
2 | CC1(C)CC(=O)C2=C(C1)N1CCc3ccccc3C1CC21SCCS1 (stereo not shown) [Compound 2]
2 | COc1cnc(-c2ccccn2)nc1NC(C)C [Compound 3]
2.5 | O=C(COc1ccc2c(c1)OCO2)N(c1ccccc1)C1CCCCC1 [Compound 4]
2.5 | O=C(/C=C/c1ccc2c(c1)OCO2)N(c1ccccn1)C1CCCCC1 [Compound 5]
3.5 | O=C(Nc1ccc([N+](=O)[O-])cc1)Nc1ccccc1N1CCCCC1 [Compound 6]
4 | CCCCCCNC(=O)N(Cc1ccccc1)c1ccccc1 [Compound 7]
5 | Cc1[nH]c(SC(C)C(=O)Nc2cccc(C#N)c2)nc1Cc1ccccc1 (stereo not shown) [Compound 8]
10 | O=C1CN(C(=O)c2ccccc2)c2ccc(C(F)(F)F)cc2N1 [Compound 9]
10 | CC1(C)CC2CC(C)(CN2/C=N/c2sc3c(c2C#N)CCCCC3)C1 (stereo not shown) [Compound 10]
10 | O=C(Nc1cccc2ccccc12)N(Cc1ccccc1)c1ccccc1 [Compound 11]
10 | COc1ccc(C(=O)Nc2sc3c(c2CN(C)C)CCCC3)cc1 [Compound 12]
10 | CC(NCc1ccc(OC(F)F)cc1)c1ccc2c(c1)CCCC2 (stereo not shown) [Compound 13]
20 | CCOC(=O)C1CCN(Cc2cc(C(C)C)c(O)c(C(C)C)c2)CC1 [Compound 14]
20 | Cc1ccc2c(C)c(C(=O)N(Cc3ccco3)C3CCS(=O)(=O)C3)oc2c1 (stereo not shown) [Compound 15]
25 | C=CCn1c(C)cc(C(=O)CSc2nc(C)cc(C(F)(F)F)c2C#N)c1C [Compound 16]
50 | Cn1nc(C(F)(F)F)cc1Oc1cc(C2OCCO2)cc(Cl)n1 [Compound 17]
100 | CC1=C/C(=N\NC(=O)CCN2CCN(c3ccccc3)CC2)CC1 [Compound 18]
100 | C=C1C2(C(=O)NCCc3ccccc3)CCC(C2)C1(C)C (stereo not shown) [Compound 19]
